Source: patent US9944660B2, “Tricyclic benzoxaboroles as antibacterial agents” (Daiichi Sankyo Company, Limited, priority 2014, dated 2018)
Read-outs that look alike come from different tables or passages of the source.

Key:
P. aeruginosa LRS = target: T1, P. aeruginosa LRS (Pseudomonas aeruginosa, UniProt Q9HX33); assay: Leucine tRNA synthetase (LRS) enzyme inhibition assay; type: biochemical; details: 3H leucine incorporation
T1 construct: made in house
Protocol: (§1) (Test Example 1) Leucine tRNA Synthetase (LRS) Enzyme Inhibition Assay [IC50]
(§2) E. coli and P. aeruginosa LRS enzymes were cloned, expressed and purified in-house. The IC50 values were determined by using following assay protocol.
(§3) Test compounds were diluted in milli-Q water. 5 μL (microliter) of test compound dilution was mixed with 20 μL of reaction mixture consisting of 100 millimolar Tris (Trizma base from Sigma), 120 millimolar potassium chloride (Sigma), […] magnesium chloride (Sigma), 50 millimolar dithiothreitol, 50 mg/mL E. coli tRNA (Roche), 150 micromolar leucine (Sigma), 0.5 microcurie of ^3H Leucine (Amersham) and 20 μL of appropriate dilution of LRS enzyme, incubate in shaker at about 30° C. for 20 minutes. The reaction was started by adding 5 μL of 40 millimolar ATP (Sigma) and incubated on shaker at the same temperature further for 20 minutes. The reaction was quenched with 150 μL ice cold trichloroacetic acid (10%). The content of each well was transferred to 96 well GF/C plates (from Pall), and washed with 150 μL of trichloroacetic acid (5%) using vacuum manifold (from Pall). Plates were dried and read using Microbeta Wallac liquid scintillation counters after adding 100 μL of scintillation cocktail (Perkin Elmer's OptiPhase ‘SuperMix’) to each well. IC50 was calculated with respect to enzyme control after subtracting background (No enzyme control) using Graph Pad Prism software.

E. coli LRS = target: T2, E. coli LRS (Escherichia coli, UniProt P07813); assay: as above; type: biochemical
T2 construct: made in house
Protocol: as §1, §2, §3

P. aeruginosa PAO-1 = assay: In vivo efficacy in P. aeruginosa PAO1 murine lung infection model; details: subcutaneous 75 mg/kg twice daily
Protocol: (Test Example 3c) In Vivo Efficacy in P. aeruginosa PAO1 Murine Lung Infection Model Overnight grown culture of P. aeruginosa PAO-1 on TSA agar was inoculated in Brain heart infusion broth (BHI, DIFCO) and grown in a shaker incubator with shaking at 110 rpm at 35±2° C. overnight. The culture was subcultured in 50 mL of BHI and incubated again at 110 rpm at 35±2° C. on a shaker incubator till the optical density of the culture reaches 0.5-0.7 units. For infection, animals were weighed, randomized and anesthetized by giving isofluorane. Under anesthesia the animals were infected with 50 μL of the inoculum prepared as above by intranasal route. The test compounds were administered at 75 mg/kg body weight by subcutaneous route after 1 hour and 6 hours post infection. Animals were euthanized, lungs were removed aseptically and homogenized in PBS (3 mL) and serial dilutions plated on TSA plates 24 hours post infection.

K. pneumoniae ATCC 13883 = assay: Bacterial susceptibility testing (MIC, CLSI microdilution); type: cell-based; details: Klebsiella pneumoniae, ATCC13883
Protocol: (§4) (Test Example 2) Method of Testing Susceptibility of Bacterial [MICs]
(§5) Minimum inhibitory concentration (MIC) were determined as recommended by the Clinical and Laboratory Standards Institute (CLSI) in 2010 (M100-520), in 2011 (M100-521), 2012 (M100-522) and in 2013 (M100-523) with minor modifications.
(§6) In short, bacterial cultures were streaked on Muller Hinton Agar plates and incubated at 35±2° C. for about 18 to 20 hours. Following day colony suspension was prepared in saline and adjusted to 0.5 McFarland using Densitometer. This culture was further diluted 100 fold in Muller Hinton Broth or M9 minimal media or pooled human urine and used for MIC determination. The test compounds were prepared in dimthylesulfoxide (DMSO) at concentration of 1 mg/mL, and diluted to 32 μg/mL in respective media. Further two fold serial dilution were prepared in 96 well microtiter plates. 50 μL of diluted cultures were added to all wells and incubated at 35±2° C. for about 16 to 20 hours.

P. aeruginosa = assay: as above; type: cell-based; details: Pseudomonas aeruginosa, strain not stated, read-out: MIC against P. aeruginosa
Protocol: as §4, §5, §6

E. coli ATCC 25922 [1] = assay: as above; type: cell-based; details: Escherichia coli, ATCC25922
Protocol: as §4, §5, §6

[2] = test system: P. aeruginosa PAO1 (parent, MexAB del, MexAB over expression); assay: MICs against Pseudomonas efflux pump mutants; type: cell-based
Protocol: as §6
(Test Example 5) MICs Against Pseudomonas Efflux Pump Mutants
Multidrug-resistant (MDR) P. aeruginosa isolated from nosocomial infections in intensive care units (ICUs) are often related to altered regulation of the specific efflux pumps and porins in P. aeruginosa strains. Tested compounds that show similar activity against efflux pump overproducers and lab strains can be predictive of activity in nosocomial patients infected with MDR strains. To identify such compounds we have determined MICs against P. aeruginosa PAO1 against Efflux deleted and overproducer strains.

E. coli ATCC 25922 [3] = assay: MICs in Muller Hinton Broth and pooled human urine; type: cell-based; details: Escherichia coli, ATCC25922
Protocol: as §6
(Test Example 4) MICs in Human Urine Against E. coli and K. pneumonia
Many antibacterial compounds like fluroquinolones loose activity in human urine at acidic pH (acidic urine promotes rigorous bacterial growth). MICs were performed using CLSI guidelines (2011) against E. coli 25922 in Muller Hinton Broth (MHB) and pooled human urine.

P. aeruginosa PAO1 = assay: In vivo efficacy in urinary tract infection (UTI) ascending model; parameters: species or system Mouse; details: 60 mg/kg body weight twice daily for 3 days, 4th day of infection
Protocol: (Test Example 3a) In Vivo Efficacy in Urinary Tract Infection (UTI) Model Mouse P. aeruginosa UTI ascending model was used. All animals were infected with P. aeruginosa PAO1 by intra-urethral route. Randomization was done 18 hours post infection before starting treatment. Therapy was initiated 18 hours post infection. Animals were treated with 30 mg/kg and 60 mg/kg body weight of test compounds twice daily for 3 days. Animals were sacrificed and cfu loads in kidney and bladder were detected by serial dilution platting on drug free TSA plates on day 4.

E. coli GK00432 = assay: In vivo efficacy in E. coli murine neutropenic thigh infection model; parameters: species or system Swiss albino mice; details: subcutaneous
Protocol: (Test Example 3b) In Vivo Efficacy in E. coli Murine Neutropenic Thigh Infection Model
Efficacy of test compounds were evaluated by subcutaneous (SC) route against E. coli GK00432 in neutropenic mouse thigh infection model. Study was performed in Swiss albino mice of either sex weighing 20±2 g. Neutropenia was induced by intraperitoneal injections of cyclophosphamide given twice prior to infection (150 mg/kg, at 4 days prior to infection, and 100 mg/kg, at 1 day prior to infection). E. coli inoculum (0.1 mL) was injected intra-muscularly in the thigh muscle. After 2 hours, test compound at a dose of 30 mg/kg and 60 mg/kg body weight were administered by subcutaneous route and one group of mice (n=5) was sacrificed to evaluate total live bacterial count per thigh as baseline bacterial loads. Remaining three doses of test compound were administered by subcutaneous route after […] hours of the infection. Animals were euthanized, thigh muscles were removed aseptically and homogenized in phosphate buffered saline (3 mL) and serial dilutions plated Tryptone Soya Agar plates 26 hours post infection.

[4] = PAO1, read-out: MIC (μg/mL) P. aeruginosa PAO1 MexAB del
[5] = PAO1, read-out: MIC (μg/mL) P. aeruginosa PAO1 MexAB over expression
[6] = PAO1, read-out: MIC (μg/mL) P. aeruginosa PAO1 Parent
[7] = Muller Hinton Broth, read-out: E. coli ATCC 25922 MIC (μg/mL) MHB
[8] = pooled human urine pH 5.5, read-out: E. coli ATCC 25922 MIC (μg/mL) Urine pH 5.5

T1 sequence (Q9HX33 whole entry): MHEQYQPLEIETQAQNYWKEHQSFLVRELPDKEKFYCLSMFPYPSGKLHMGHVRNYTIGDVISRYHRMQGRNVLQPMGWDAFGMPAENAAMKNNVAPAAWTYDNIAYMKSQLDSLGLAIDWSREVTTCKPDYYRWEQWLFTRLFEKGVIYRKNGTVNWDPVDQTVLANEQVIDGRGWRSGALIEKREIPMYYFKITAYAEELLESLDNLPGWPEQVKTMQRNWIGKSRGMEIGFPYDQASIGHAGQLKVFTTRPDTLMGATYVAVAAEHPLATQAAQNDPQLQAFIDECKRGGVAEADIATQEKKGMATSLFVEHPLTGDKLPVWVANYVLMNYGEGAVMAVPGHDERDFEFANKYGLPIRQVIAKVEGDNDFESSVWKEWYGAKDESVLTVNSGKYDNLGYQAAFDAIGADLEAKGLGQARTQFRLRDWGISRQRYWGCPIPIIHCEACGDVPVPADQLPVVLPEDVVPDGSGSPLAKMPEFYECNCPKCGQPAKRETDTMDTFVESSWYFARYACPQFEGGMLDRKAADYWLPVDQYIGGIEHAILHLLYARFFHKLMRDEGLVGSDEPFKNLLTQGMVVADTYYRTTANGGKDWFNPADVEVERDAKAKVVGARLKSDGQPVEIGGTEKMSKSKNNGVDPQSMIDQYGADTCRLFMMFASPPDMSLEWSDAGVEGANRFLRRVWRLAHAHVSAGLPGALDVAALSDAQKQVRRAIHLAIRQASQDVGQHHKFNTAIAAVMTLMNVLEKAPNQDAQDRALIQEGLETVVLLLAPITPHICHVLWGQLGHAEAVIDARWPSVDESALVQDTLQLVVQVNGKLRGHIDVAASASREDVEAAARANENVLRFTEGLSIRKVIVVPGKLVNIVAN
T2 sequence (P07813 whole entry): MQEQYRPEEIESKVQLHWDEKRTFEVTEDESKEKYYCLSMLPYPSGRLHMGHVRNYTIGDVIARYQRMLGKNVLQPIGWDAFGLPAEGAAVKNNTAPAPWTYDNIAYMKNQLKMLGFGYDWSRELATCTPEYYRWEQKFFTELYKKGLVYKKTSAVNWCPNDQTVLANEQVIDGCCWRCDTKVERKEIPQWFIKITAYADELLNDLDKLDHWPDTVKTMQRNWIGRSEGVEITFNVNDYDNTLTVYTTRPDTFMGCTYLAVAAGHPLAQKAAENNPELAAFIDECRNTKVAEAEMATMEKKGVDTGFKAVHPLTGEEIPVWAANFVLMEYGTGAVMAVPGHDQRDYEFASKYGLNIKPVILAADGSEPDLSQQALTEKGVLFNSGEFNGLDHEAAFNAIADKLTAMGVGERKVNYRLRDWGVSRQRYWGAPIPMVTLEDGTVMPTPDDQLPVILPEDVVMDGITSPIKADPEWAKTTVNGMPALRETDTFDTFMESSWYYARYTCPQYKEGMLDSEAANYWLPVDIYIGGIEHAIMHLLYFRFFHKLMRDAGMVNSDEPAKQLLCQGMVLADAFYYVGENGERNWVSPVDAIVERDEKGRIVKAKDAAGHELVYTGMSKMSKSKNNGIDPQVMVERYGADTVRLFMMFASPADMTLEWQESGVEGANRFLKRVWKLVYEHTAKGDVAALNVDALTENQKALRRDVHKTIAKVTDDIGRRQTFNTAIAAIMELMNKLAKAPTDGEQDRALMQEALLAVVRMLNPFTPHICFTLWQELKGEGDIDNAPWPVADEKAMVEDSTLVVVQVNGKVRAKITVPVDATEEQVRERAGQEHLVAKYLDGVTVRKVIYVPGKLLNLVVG

| SMILES | IC50 (P. aeruginosa LRS) | IC50 (E. coli LRS) | log reduction in cfu from 24 hours untreated control (P. aeruginosa PAO-1) | log reduction in cfu's from baseline (P. aeruginosa PAO-1) | MIC (K. pneumoniae ATCC 13883) | MIC (P. aeruginosa) | MIC (E. coli ATCC 25922 [1]) | MIC [2, 4] | MIC [2, 5] | MIC [2, 6] | MIC (E. coli ATCC 25922 [3]; [7]) | MIC (E. coli ATCC 25922 [3]; [8]) | log reduction from the untreated control in bladder counts (P. aeruginosa PAO1; bladder) | log reduction from the untreated control in kidney counts (P. aeruginosa PAO1; kidney) | log reduction in colony forming units (cfu) from 26 hours untreated control (E. coli GK00432; 30 mg/kg four times daily (QID)) | log reduction in colony forming units (cfu) from 26 hours untreated control (E. coli GK00432; 60 mg/kg four times daily (QID)) |
| --- | --- | --- | --- | --- | --- | --- | --- | --- | --- | --- | --- | --- | --- | --- | --- | --- |
| Cl.NC[C@H]1OB(O)c2ccc3c(c21)OCO3 (single isomer, unassigned) [Compound 6, hydrochloride] | < 0.12 µM | < 0.12 µM | – | – | – | – | – | – | – | – | – | – | – | – | – | – |
| Cl.NC[C@H]1OB(O)c2c1ccc1c2OCO1 (single isomer, unassigned) [Compound 10, hydrochloride] | 0.62 µM | 0.38 µM | – | – | – | – | – | – | – | – | – | – | – | – | – | – |
| Cl.NC[C@H]1OB(O)c2c1ccc1c2OCO1 (single isomer, unassigned) [Compound 10] | – | – | 3.53 log | 2.07 log | 0.5 µg/mL | 1 µg/mL | 2 µg/mL | 1 µg/mL | 1 µg/mL | 1 µg/mL | 2 µg/mL | 4 µg/mL | 3.83 log | 4.18 log | – | – |
| Cl.NCC1OB(O)c2cc3c(cc21)OCO3 (stereo not shown) [Compound 1, 3-(aminomethyl)[1,3]dioxolo[4,5-f][2,1]benzoxaborol-1(3H)-ol hydrochloride] | > 10 µM | 1.4 µM | – | – | 4 µg/mL | – | 4 µg/mL | – | – | – | – | – | – | – | – | – |
| Cl.NCC1OB(O)c2cc3c(cc21)OCCO3 (stereo not shown) [Compound 2, 3-(aminomethyl)-6,7-dihydro[1,2]oxaborolo[3,4-g][1,4]benzodioxin-1(3H)-ol hydrochloride] | > 10 µM | 3.35 µM | – | – | 8 µg/mL | – | 4 µg/mL | – | – | – | – | – | – | – | – | – |
| Cl.NCC1OB(O)c2c1ccc1c2CCC1 (stereo not shown) [Compound 3, 3-(aminomethyl)-3,6,7,8-tetrahydro-1H-indeno[4,5-c][1,2]oxaborol-1-ol hydrochloride] | 2.2 µM | 2.5 µM | – | – | 1 µg/mL | – | 1 µg/mL | – | – | – | – | – | – | – | – | – |
| Cl.NCC1OB(O)c2c1ccc1c2CCCC1 (stereo not shown) [Compound 4, 3-(Aminomethyl)-6,7,8,9-tetrahydronaphtho[1,2-c][1,2]oxaborol-1(3H)-ol hydrochloride] | 9.5 µM | 4.5 µM | – | – | 16 µg/mL | – | 8 µg/mL | – | – | – | – | – | – | – | – | – |
| Cl.NCC1OB(O)c2ccc3c(c21)OCO3 (stereo not shown) [Compound 5, 8-(aminomethyl)[1,3]dioxolo[4,5-e][2,1]benzoxaborol-6(8H)-ol hydrochloride] | 2.3 µM | 0.8 µM | – | – | 1 µg/mL | 8 µg/mL | 1 µg/mL | 4 µg/mL | 8 µg/mL | 4 µg/mL | 2 µg/mL | 4 µg/mL | – | – | 3.1 log | 3.8 log |
| Cl.NCC1OB(O)c2ccc3c(c21)OCCO3 (stereo not shown) [Compound 7, 9-(aminomethyl)-2,3-dihydro[1,2]oxaborolo[4,3-f][1,4]benzodioxin-7(9H)-ol hydrochloride] | 0.6 µM | 0.8 µM | – | – | 16 µg/mL | – | 8 µg/mL | – | – | – | – | – | – | – | – | – |
| Cl.NCC1OB(O)c2c1ccc1c2OCCO1 (stereo not shown) [Compound 8, 3-(aminomethyl)-7,8-dihydro[1,2]oxaborolo[3,4-f][1,4]benzodioxin-1(3H)-ol hydrochloride] | 3.2 µM | 2.1 µM | – | – | 4 µg/mL | 4 µg/mL | 4 µg/mL | 4 µg/mL | 4 µg/mL | 2 µg/mL | 8 µg/mL | 16 µg/mL | – | – | – | – |
| Cl.NCC1OB(O)c2c1ccc1c2OCO1 (stereo not shown) [Compound 9, 3-(aminomethyl)[1,3]dioxolo[4,5-g][2,1]benzoxaborol-1(3H)-ol; hydrochloride] | 2.7 µM | 1.7 µM | – | – | 2 µg/mL | 2 µg/mL | 2 µg/mL | 2 µg/mL | 4 µg/mL | 2 µg/mL | 8 µg/mL | 8 µg/mL | – | – | – | – |
| Cl.NCC1OB(O)c2cc3c(cc21)CCO3 (stereo not shown) [Compound 11, 3-(aminomethyl)-5,6-dihydrofuro[3,2-f][2,1]benzoxaborol-1(3H)-ol hydrochloride] | > 10 µM | 2.9 µM | – | – | 4 µg/mL | – | 4 µg/mL | – | – | – | – | – | – | – | – | – |
| Cl.NCC1OB(O)c2cc3c(cc21)OCC3 (stereo not shown) [Compound 12, 3-(aminomethyl)-6,7-dihydrofuro[2,3-f][2,1]benzoxaborol-1(3H)-ol hydrochloride] | > 10 µM | 2.8 µM | – | – | 16 µg/mL | – | 8 µg/mL | – | – | – | – | – | – | – | – | – |
